# Measured values from patent publication US11672788B2, “Histone deacetylase inhibitors for immunomodulation in tumor microenvironment” (GREAT NOVEL THERAPEUTICS BIOTECH & MEDICALS CORPORATION, priority 2020, dated 2023).
# Legend:
# [1] = test system: histone H3 acetylation (AcH3) in SW48 cells; experiment: Western blot of histone H3 acetylation; assay type: cell-based, human; details: SW48, 1.0 μM, 2-72 h
# Summary of the method: (§1)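 MDA-MB-231 and SW48 cells in L-15 with 10% FCS were treated at indicated doses for 24 h or over a time course. RIPA lysates were immunoblotted for acetylated histone H3 with β-actin as loading control, using ECL detection.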
# [2] = test system: histone H3 acetylation (AcH3) in MDA-MB-231 cells; experiment: Western blot of histone H3 acetylation; assay type: cell-based, human; details: MDA-MB-231, 1.0 μM
# Summary of the method: as §1
# HDAC2 = HDAC2 (Homo sapiens (Human), UniProt Q92769); experiment: HDACs 1, 2, and 3 enzymatic inhibition (fluorogenic kit, 1 h); assay type: biochemical; details: 37° C.
# Chain of HDAC2 (Q92769 whole entry): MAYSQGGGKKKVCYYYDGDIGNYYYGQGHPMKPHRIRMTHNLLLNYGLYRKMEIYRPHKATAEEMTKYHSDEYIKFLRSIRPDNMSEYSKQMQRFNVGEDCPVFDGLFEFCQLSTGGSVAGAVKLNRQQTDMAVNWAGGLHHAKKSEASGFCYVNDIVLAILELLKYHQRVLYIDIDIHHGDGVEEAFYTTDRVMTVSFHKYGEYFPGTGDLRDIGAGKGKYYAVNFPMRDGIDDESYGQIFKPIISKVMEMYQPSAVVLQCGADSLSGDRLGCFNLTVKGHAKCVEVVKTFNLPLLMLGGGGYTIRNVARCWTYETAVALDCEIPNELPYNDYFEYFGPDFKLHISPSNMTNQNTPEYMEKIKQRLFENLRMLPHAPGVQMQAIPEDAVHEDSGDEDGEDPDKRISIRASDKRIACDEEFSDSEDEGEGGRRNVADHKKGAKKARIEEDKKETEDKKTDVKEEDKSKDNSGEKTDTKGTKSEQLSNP
# Protocol: (§2) HDACs assay was performed according to standard Protocols (Fluorgenic HDACs 1, 2, and 3 assay kit, BPS Bioscience™). […] After 1 h, assay developer was added to the samples and the absorbance was read at fluorogenic wavelength. The relative inhibition to HDACs 1, 2, and 3 activities in each sample was determined.
# HDAC1 = HDAC1 (Homo sapiens (Human), UniProt Q13547); experiment: as above; assay type: biochemical; details: 37° C.
# Chain of HDAC1 (Q13547 whole entry): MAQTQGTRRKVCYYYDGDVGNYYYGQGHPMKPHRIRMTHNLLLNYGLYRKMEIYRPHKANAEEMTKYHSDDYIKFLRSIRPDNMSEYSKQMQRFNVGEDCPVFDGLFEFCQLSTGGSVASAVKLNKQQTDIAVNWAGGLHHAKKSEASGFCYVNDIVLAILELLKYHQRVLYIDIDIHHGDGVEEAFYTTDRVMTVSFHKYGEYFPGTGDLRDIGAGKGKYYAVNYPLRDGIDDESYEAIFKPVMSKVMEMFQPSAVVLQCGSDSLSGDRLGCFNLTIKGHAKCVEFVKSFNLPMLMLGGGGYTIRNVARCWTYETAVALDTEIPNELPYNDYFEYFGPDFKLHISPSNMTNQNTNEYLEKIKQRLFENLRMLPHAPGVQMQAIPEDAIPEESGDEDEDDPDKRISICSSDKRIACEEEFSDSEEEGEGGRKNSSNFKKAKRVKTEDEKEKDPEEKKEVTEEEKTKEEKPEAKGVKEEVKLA
# Protocol: as §2
# HDAC3 = HDAC3 (Homo sapiens (Human), UniProt O15379); experiment: as above; assay type: biochemical; details: 37° C.
# Chain of HDAC3 (O15379 whole entry): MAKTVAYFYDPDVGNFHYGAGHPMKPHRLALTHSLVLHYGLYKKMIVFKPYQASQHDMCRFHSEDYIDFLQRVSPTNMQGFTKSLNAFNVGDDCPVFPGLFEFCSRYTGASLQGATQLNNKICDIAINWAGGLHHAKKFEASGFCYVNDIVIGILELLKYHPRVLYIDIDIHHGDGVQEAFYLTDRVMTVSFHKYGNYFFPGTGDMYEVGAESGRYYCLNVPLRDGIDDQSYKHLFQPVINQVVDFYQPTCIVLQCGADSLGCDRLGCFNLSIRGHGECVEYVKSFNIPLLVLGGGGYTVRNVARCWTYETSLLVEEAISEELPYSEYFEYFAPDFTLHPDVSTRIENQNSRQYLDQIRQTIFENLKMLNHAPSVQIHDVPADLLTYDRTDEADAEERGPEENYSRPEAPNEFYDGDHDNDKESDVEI
# Chain of HDAC3 (Q9Y618 395-489 partner): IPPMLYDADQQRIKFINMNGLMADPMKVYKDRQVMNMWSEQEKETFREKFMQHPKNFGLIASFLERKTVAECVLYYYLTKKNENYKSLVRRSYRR
# Protocol: as §2
smiles,measurement,setting,value
"Cc1ccc(/C=C/CC(=O)Nc2ccc(C(=O)Nc3ccc(F)cc3N)nc2)cn1 [GNTbm-02, 5-((E)-4-(6-methylpyridin-3-yl)but-3-enamido)-N-(2-amino-4-fluorophenyl)pyridine-2-carboxamide]","Histone H3 acetylation, time course",[1],potently induced histone H3 acetylation level in SW48 cells after 6 h treatment
same,"Histone H3 acetylation, time course",[2]; 2-72 h,potently induced histone H3 acetylation in MDA-MB-231 cell after 6 h treatment
same,Level of histone H3 acetylation,[2]; 24 h,significantly increased the level of histone H3 acetylation
same,IC50,HDAC2,0.55 ± 0.06 µM
same,IC50,HDAC1,0.52 ± 0.02 µM
same,IC50,HDAC3,0.67 ± 0.005 µM
